pIC50: −log10 of the molar value.
Target: T1, E-selectin/Ig chimera (Homo sapiens, UniProt P16581)
T1 sequence (P16581 22-556): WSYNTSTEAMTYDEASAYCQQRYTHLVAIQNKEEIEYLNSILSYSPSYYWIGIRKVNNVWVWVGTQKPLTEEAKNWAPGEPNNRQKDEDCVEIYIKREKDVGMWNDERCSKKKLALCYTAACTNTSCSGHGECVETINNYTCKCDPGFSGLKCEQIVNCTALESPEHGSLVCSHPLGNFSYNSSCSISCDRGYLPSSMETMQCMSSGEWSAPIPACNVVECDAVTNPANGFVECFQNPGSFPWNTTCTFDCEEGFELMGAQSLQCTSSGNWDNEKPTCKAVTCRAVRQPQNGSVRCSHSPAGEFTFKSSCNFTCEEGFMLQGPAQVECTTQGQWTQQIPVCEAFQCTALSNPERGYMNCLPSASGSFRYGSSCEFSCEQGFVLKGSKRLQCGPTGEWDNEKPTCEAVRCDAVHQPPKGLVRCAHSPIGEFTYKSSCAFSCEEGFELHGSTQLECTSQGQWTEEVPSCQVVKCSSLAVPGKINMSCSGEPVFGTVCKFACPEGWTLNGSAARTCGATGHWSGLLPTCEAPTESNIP
Test: E-Selectin Activity - Alternative Binding Assay (inhibition of sLea binding to immobilized E-selectin/Ig chimera)
Conditions: concentration required to inhibit binding of biotinylated sLea polyacrylamide/streptavidin-HRP conjugate to immobilized E-selectin by 50%; absorbance 450 nm
Method: E-selectin/Ig chimera was immobilized in 96 well microtiter plates by incubation at 37° C. for 2 hours. To reduce nonspecific binding, bovine serum albumin was added to each well and incubated at room temperature for 2 hours. The plate was washed and serial dilutions of the test compounds were added to the wells in the presence of conjugates of biotinylated, sLe^a polyacrylamide with streptavidin/horseradish peroxidase and incubated for 2 hours at room temperature.
To determine the amount of sLe^a hound to immobilized E-selectin after washing, the peroxidase substrate, 3,3′,5,5′ tetrametbylbenzidine (TMB) was added. After 3 minutes, the enzyme reaction was stopped by the addition of H3PO4, and the absorbance of light at a wavelength of 450 nm was determined.

pIC50: 6.15
Compound: CCC1CCCC(OC2OC(CO)C(O)C(OC(CC3CCCCC3)C(=O)O)C2OC(=O)c2ccccc2)C1OC1OC(C(F)(F)F)C(O)C(O)C1O [Compound 75, sodium (5)-2-(((2R,3R,4S,5S,6R)-3-(benzoyloxy)-2-(((1R,2R,3S)-3-ethyl-2-(((2R,3S,4R,5S,6R)-3,4,5-trihydroxy-6-(trifluoromethyl)tetrahydro-2H-pyran-2-yl)oxy)cyclohexypoxy)-5-hydroxy-6-(hydroxymethyl)tetrahydro-2H-pyran-4-yl)oxy)-3-cyclohexylpropanoate]

Source: patent US20200316100A1, “HALOALKYL FUCOSE-CONTAINING SELECTIN ANTAGONISTS” (GlycoMimetics, Inc., priority 2016, published 2020)
